Experimental data: US5380834A, “Immuno-suppressive agent” (Ishihara Sangyo Kaisha Ltd., priority 1992, dated 1995)
Converted amounts (≈) assume the structure as drawn. Like-named read-outs stand apart in the source and are kept apart here.

Columns and labels:
[1] = system: murine mixed lymphocyte reaction (spleen cells of BALB/c and C57BL/6 mice); assay: Effects on the murine mixed lymphocyte reaction (3H-TdR uptake); type: cell-based; conditions: Mus musculus, BALB/c + C57BL/6 spleen cells, 48 hours, read-out: IC50 value, b (murine mixed lymphocyte reaction)
Experimental: Using spleen cells of BALB/c and C57BL/6 mice, the effect of the compound of the formula (I) on the murine mixed lymphocyte reaction in both sides, was studied. Namely, spleen cells of both types of mice were mixed in an equal amount of 5×10^5 cells each, and the mixed cells were cultured together with the compound of the formula (I) for 48 hours on a microplate with 96 wells by a 10% FCS-RPMI solution (in an incubator, 5% CO2, at 37° C.). Then, 0.5 μCi of ^3 H-TdR was added thereto, and the mixture was further cultured for from 16 to 18 hours. Then, cells were collected by a cell harvester, and the radioactivity (dpm) of ^3 H-TdR uptaken into the cells, was measured. Such measured amounts of ^3 H-TdR uptaken into the cells were used as indices for the mixed lymphocyte reaction, and the radioactivity at each concentration (from 0.001 to 1,000 μg/ml) of the compound of the formula (I) was compared with the non-treated control value, to calculate the Ic50 value.
For the basic procedure for this test, reference was made to Selected methods in cellular immunology, p. 147-149 (translated by Katsuyuki Imai et al., published by Rikogakusha, (1982)).

murine bone mallow cells = assay: Effects on the murine bone mallow cells (proliferation, 3H-TdR uptake); type: cell-based, BALB/c mouse; conditions: Mus musculus
Experimental: Bone mallow cells were removed from the femur of a BALB/c mouse and suspended in a 10% FCS-RPMI solution. The cell suspension was put into a plastic Petri dish having a diameter of 10 cm and left to stand still (in an incubator, 5% CO2, at 37° C.). Two hours later, only floating cells were recovered, and adhesion cells were removed. 1×10^5 floating cells were cultured for 48 hours together with a 20% culture supernatant of L929 fibroblastoma and the compound of the formula (I) on a microplate with 96 wells by a 10% FCS-RPMI solution (in an incubator, 5% CO2, at 37° C.). Then, 0.5 μCi of ^3 H-TdR was added thereto, and the mixture was further cultured for 4 hours. Then, cells were collected by a cell harvester, and the radioactivity (dpm) of ^3 H-TdR uptaken into the cells, was measured. Such measured amounts of ^3 H-TdR uptaken into the cells were used as indices for the proliferation of bone mallow cells, and the radioactivity at each concentration (from 0.001 to 1,000 μg/ml) of the compound of the formula (I) was compared with the control value where the L929 culture supernatant was added alone, to calculate the IC50 value. In these Tables 12 and 13, the results of the bone mallow cells are shown by (c).
For the basic procedure of this test, reference was made to Seikagakujikken Koza compiled by Japan Biochemistry Association, Vol. 5, p. 266-270 (published by Tokyo Kagaku Dojin in 1986).

[2] = system: IgE antibody production from murine spleen B cells; assay: Effects on the IgE antibody production from murine spleen cells (LPS + IL4); type: cell-based, BALB/c mouse; conditions: Mus musculus, B-cell, 168 h, read-out: IC50 value, IgE antibody production
Experimental: (§1) Using murine spleen B cells, the effects of the compound of the formula (I) on the IgGl, IgM and IgE antibody production induced by the stimulation by LPS (lipopolysaccharide; Product No. 520.02051, manufactured by Wako Junyaku) and IL4 (interleukin 4), were studied. Namely, spleen cells of a BALB/c mouse were treated with a murine anti-Thy-1 antibody (obtained from Chiba University) and a rabbit complement (Product No. 3051, manufactured by cedarlane) to remove T cells, and 3×10^5 spleen B cells were cultured for 7 days together with 10 μg/ml of LPS, 100 U/ml of mouse-recombinant IL4 (Product No. MIL-4C, manufactured by Genzyme) and each concentration (from […]) of the compound of the formula (I) on a microplate with 96 wells by a 10% FCS-RPMI solution (in an incubator, 5% CO2, at 37° C.).
(§2) For the basic procedure of this test, reference was made to The Journal of Immunology, Vol. 136, p. 4538, (1986).
(§3) The amount of each antibody in the cell culture supernatant hereby obtained, was measured by the following enzyme-immunoassay. Firstly, on a microplate with 96 wells, 1 μg/ml of a rabbit anti-mouse IgGl antibody (Product No. 36243, manufactured by Cappel), 1 μg/ml of a goat anti-mouse IgM antibody (Product No. 0611-0201, manufactured by Cappel) or 10 μg/ml of a rat anti-mouse IgE monoclonal antibody (Product No. LO-ME-2, manufactured by Experimental Immunology) was coated (50 μl/well, at room temperature for 60 minutes), and then a nonspecific bond was blocked by a 0.1% bovine serum albumin-containing 10 mM sodium phosphate buffer (pH 7.2) (at room temperature for 60 minutes). Then, the above-mentioned cell culture supernatant or its diluted solution was added in an amount of 50 μl/well and reacted at room temperature for 60 minutes. Further, an alkaline phosphatase-labeled rabbit anti-mouse IgGl antibody (Product No. 61-0122, manufactured by Zymet) diluted 1,000 times, an alkaline phosphatase-labeled rabbit anti-mouse IgM antibody (Product No. 61-6822, manufactured by Zymet) diluted 2,000 times, or an alkaline phosphatase-labeled goat anti-mouse IgE antibody (Product No. PA-284, manufactured by Binding Site) diluted 500 times was added in an amount of 50 μl/well and reacted at room temperature for 60 minutes. 100 μl/well of a 10% diethanol amine buffer solution (pH 9.8) containing p-nitrophenyl phosphate as an enzyme substrate, was reacted, and the absorbance at 405 nm was measured. The amount of each antibody was calculated from the calibration curve of each standard antibody, and the IC50 value of the compound of the formula (I) on the antibody production was calculated using as the control value a value obtained in the absence of the compound of the formula (I).

[3] = system: IgM antibody production from murine spleen B cells; assay: Effects on the IgM antibody production from murine spleen cells (LPS + IL4); type: cell-based, BALB/c mouse; conditions: Mus musculus, B-cell, 168 h, read-out: IC50 value, IgM antibody production
Experimental: as §1, §2, §3

[4] = system: IgGl antibody production from murine spleen B cells; assay: Effects on the IgGl antibody production from murine spleen cells (LPS + IL4); type: cell-based, BALB/c mouse; conditions: Mus musculus, B-cell, 168 h, read-out: IC50 value, IgGl antibody production
Experimental: as §1, §2, §3

murine thymocytes = assay: Effects on the mitogenic response by murine thymocytes (Con A stimulation, 3H-TdR uptake); type: cell-based, BALB/c murine; conditions: Mus musculus, Thymocyte, read-out: IC50 value, a (mitogenic response of murine thymocytes)
Experimental: Using BALB/c murine thymocytes, the effect of the compound of the formula (I) on the mitogenic response of lymphocytes to the stimulation by concanavalin A (hereinafter referred to simply as Con A, Product No. L-1000, manufactured by Vector Laboratories) was studied. Namely, 4×10^5 murine thymocytes were cultured for 48 hours on a microplate with 96 wells in a RPMI1640 solution containing 10% of a fetal bovine serum (hereinafter referred to simply as a 10% FCS-RPMI solution) together with Con A (5 μg/ml) and the compound of the formula (I) (in an incubator, 5% CO2, at 37° C.). Then, 0.5 μCi of ^3 H-thymidine (hereinafter referred to simply as ^3 H-TdR) was added thereto, and the mixture was further cultured for 4 hours. Then, cells were collected by a cell harvester, and the radioactivity (dpm) of ^3 H-TdR uptaken into cells was measured. Such measured amounts of ^3 H-TdR uptaken into the cells were used as indices of the mitogenic response of the murine thymocytes, and the radioactivity at each concentration (from 0.001 to 1,000 μg/ml) of the compound of the formula (I) was compared with the control value treated solely by Con A, to calculate IC50 value. In these Tables 12 and 13, the results of murine thymocytes are shown by (a).
For the basic procedure of this test, reference was made to Selected methods in cellular immunology, p. 144-146 (translated by Katsuyuki Imai et al., published by Rikogakusha, (1982)).

[5] = bone marrow cells, 20% L929 culture supernatant, 48 hours, 3H-TdR uptake, Tables 12-15, read-out: IC50 value, c (murine bone mallow cells)
[6] = spleen B cells, LPS 10 μg/ml, IL4 100 U/ml, 7 days, enzyme-immunoassay
[7] = BALB/c thymocytes, Con A 5 μg/ml, 48 hours, 3H-TdR uptake

| Compound | IC50 [1] [µg/mL] | IC50 (murine bone mallow cells; [5]) [µg/mL] | IC50 [2, 6] [µg/mL] | IC50 [3, 6] [µg/mL] | IC50 [4, 6] [µg/mL] | IC50 (murine thymocytes; [7]) [µg/mL] | IC50 (murine bone mallow cells; L929, read-out: IC50 value, c (murine bone mallow cells)) [µg/mL] | IC50 [2] [µg/mL] | IC50 [3] [µg/mL] | IC50 [4] [µg/mL] | IC50 (murine thymocytes) [µg/mL] |
| --- | --- | --- | --- | --- | --- | --- | --- | --- | --- | --- | --- |
| CCCCCCCCCCCCCCCCCCCC(=O)O[C@H]1C=C[C@H]2CO[C@@H]1O2 [Compound 20] | 240 | 400 (≈ 946 µM) | 3.2 | 500 | 5.2 | 150 (≈ 355 µM) |  |  |  |  |  |
| Nc1ccccc1C(=O)O[C@H]1C=C[C@H]2CO[C@@H]1O2 [Compound 19] |  |  |  |  |  |  | 160 (≈ 647 µM) | 32 | 76 | 24 | 0.39 (≈ 1.58 µM) |
| CCCCCCCC/C=C\CCCCCCCC(=O)O[C@H]1C=C[C@H]2CO[C@@H]1O2 [Compound 8] |  | > 1000 | 310 | 340 | 810 |  |  |  |  |  |  |
| COC(=O)O[C@H]1C=C[C@H]2CO[C@@H]1O2 [Compound 21, 1,6-anhydro-3,4-dideoxy-2-O-methoxycarbonyl-β-D-threo-hex-3-enopyranose] |  | > 1000 | 17 | 130 | 500 |  |  |  |  |  |  |
| O=C(CCCCCBr)O[C@H]1C=C[C@H]2CO[C@@H]1O2 [Compound 13] | 190 | 330 (≈ 1080 µM) | 0.32 | < 0.001 | < 0.001 | 33 (≈ 108 µM) |  |  |  |  |  |
| CCCCCCCCCCCCCCCC(=O)O[C@H]1C=C[C@H]2CO[C@@H]1O2 [Compound 7] | 76 | 89 (≈ 243 µM) | 180 | 410 | 330 | 49 (≈ 134 µM) |  |  |  |  |  |
| CC(C)CC(=O)O[C@H]1C=C[C@H]2CO[C@@H]1O2 [Compound 2, 1,6-anhydro-3,4-dideoxy-2-O-isovaleryl-β-D-threo-hex-3-enopyranose] | 560 | > 1000 | 370 | 250 | 300 | 350 (≈ 1650 µM) |  |  |  |  |  |
| O=C(CCl)O[C@H]1C=C[C@H]2CO[C@@H]1O2 [Compound 10] | 18 | 68 (≈ 332 µM) | < 0.001 | < 0.001 | < 0.001 | 1.4 (≈ 6.84 µM) |  |  |  |  |  |
